Data on 9 compounds can be found in patent US20250051390A1, “NOVEL ADIPONECTIN-DERIVED PEPTOID DERIVATIVE AND USE THEREOF” (SEOUL NATIONAL UNIVERSITY HOSPITAL, priority 2021, published 2025).

Converted amounts (≈) assume the structure as drawn. *1 amine or outer side, *2 acyl side, *3 side chain or, on linkers, in order; H or OH if unused. Where a SMILES comes first, the peptide text is derived from it. [ ]: non-standard residue; d: D form. Gly(N-4-hydroxybenzyl) = O=C(O)CNCc1ccc(O)cc1; X1 = O=C(CN(Cc1ccc(C(F)(F)F)cc1)[*:1])[*:2]; Gly(N-cPent) = O=C(O)CNC1CCCC1; Gly(NCH2cPr) = O=C(O)CNCC1CC1; N(cBu)Gly = O=C(O)CNC1CCC1; Nphe = O=C(O)CNCc1ccccc1

Data set [1] has as its system AMPK phosphorylation. Description: AMPK phosphorylation activity in mouse adipocytes (Western blot). The data set is classed as cell-based. The settings on record: 3T3-L1, 10 μM, 24 hours; for AMPK phosphorylation activity (fold change): Western blot, APN5 = 1.0. The protocol: There were confirmed effects of the peptoid derivative of the present disclosure on the expression and receptor activity of adiponectin in mouse adipocytes as a main adiponectin production site. A mouse adipocyte cell line 3T3-L1 was treated with each of the peptoid derivatives of the present disclosure at a concentration of 10 μM and cultured for 24 hours, and then cells were obtained. Thereafter, the protein was extracted and the effect of adiponectin on AMPK phosphorylation, which was responsible for the main downstream signaling, was confirmed by Western blot.
(Immunoblotting shows a protein as a band on a membrane.)

For another data set, the target named is T1, adiponectin receptor 1 (Mus musculus, UniProt Q91VH1).
T1 construct: a mouse adipocyte cell line 3T3-L1 was treated with siRNA of an adiponectin receptor 1 to be knocked down; endogenous in cells; host or cells: 3T3-L1 mouse adipocyte cell line
T1 sequence (Q91VH1 1-375): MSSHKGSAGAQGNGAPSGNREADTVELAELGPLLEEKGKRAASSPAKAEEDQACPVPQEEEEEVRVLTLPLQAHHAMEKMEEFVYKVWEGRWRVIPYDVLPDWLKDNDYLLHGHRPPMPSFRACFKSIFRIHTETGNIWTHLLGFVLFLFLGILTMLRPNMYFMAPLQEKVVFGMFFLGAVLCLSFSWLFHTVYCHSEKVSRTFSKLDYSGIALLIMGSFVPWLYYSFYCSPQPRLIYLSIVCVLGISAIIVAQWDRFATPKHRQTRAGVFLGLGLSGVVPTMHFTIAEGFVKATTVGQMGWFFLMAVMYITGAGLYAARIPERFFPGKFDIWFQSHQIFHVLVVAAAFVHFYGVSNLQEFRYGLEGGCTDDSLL
Nature of the data set: Loss of AMPK phosphorylation activity after knockdown of adiponectin receptor 1. The data set is classed as cell-based. The settings on record: 3T3-L1, adiponectin receptor 1 siRNA, 10 μM, 24 hours. The protocol:
In order to verify whether the peptoid derivative of the present disclosure bound to an adiponectin receptor 1, a mouse adipocyte cell line 3T3-L1 was treated with siRNA of an adiponectin receptor 1 to be knocked down, and each of the peptoid derivatives of the present disclosure was treated at a concentration of 10 μM and cultured for 24 hours, and then cells were obtained. Thereafter, the proteins were extracted and it was confirmed by Western blot whether AMPK phosphorylation activity, which had been increased by the peptoid derivatives, was lost.

The test system of data set [2] is AMPK phosphorylation. Nature of the data set: Concentration dependence of AMPK phosphorylation activity. The data set is classed as cell-based, mouse. The settings on record: 3T3-L1, 0, 0.01, 0.1, 1, 10, and 100 μM, 24 hours. An excerpt: Thereafter, the protein was extracted and the effect of the peptoid derivative on AMPK phosphorylation in a concentration-dependent manner was confirmed by Western blot.

Another data set in a line: physchem. The settings on record: pH 7.4.
The nature of data set [3]: in vitro. The following applies: human, plasma.
Method: (§2) The peptoid derivative of the present disclosure was added at a concentration of 1 μM to two types of plasma (human, rat), placed in each tube, and then cultured at 37° C. for time of 0, 30, 60, 120, and 240 minutes. The tube containing plasma was taken out every time, added with an acetonitrile solution containing an internal standard material (chlorpropamide), vortexed for 5 minutes, and centrifuged for 5 minutes (14,000 rpm, 4° C.). Thereafter, the plasma stability of the peptoid derivative was evaluated by injecting the supernatant into an LC-MS/MS system and analyzing the drug at each time period. At this time, Procaine and Enalapril were used as reference materials for accuracy during a general plasma stability test.
(§3) After the reaction, the amount of drug remaining in each tube was analyzed by LC-MS/MS using Shimadzu Nexera XR system and TSQ vantage (Thermo). The HPLC column was used with a Luna C18 column (2.0×50 mm, 3 μm particle size; Phenomenex, US), and the mobile phase was distilled water (A) containing 0.1% formic acid and acetonitrile (B) containing 0.1% formic acid. Data analysis was performed using Xcalibur (version 1.6.1). In the result analysis, the plasma stability of each peptoid derivative was expressed as % remaining for each time period for the sample without culture.
A short description of data set [4]: in vitro. The settings on record: rat, plasma.
Method: as §2, §3
Data set [5] is described as follows: in vitro. The following applies: human, microsomes, pH 7.4.
Method: (§4) Three types of liver microsomes (Human, Rat, Mouse, 0.5 mg/ml), a 0.1 M phosphate buffer solution (pH 7.4), and the peptoid derivative of the present disclosure were added at a concentration of 1 μM and pre-cultured at 37° C. for 5 minutes, and then added with an NADPH Regeneration system solution and cultured at 37° C. for 30 minutes. Thereafter, to terminate the reaction, the mixture was added with an acetonitrile solution containing an internal standard material (chlorpropamide), centrifuged for 5 minutes (14,000 rpm, 4° C.), and then the supernatant was injected into the LC-MS/MS system to analyze a substrate drug, and thus metabolic stability was evaluated.
The HPLC column was used with a Kinetex C18 column (2.1×100 mm, 1.7 μm particle size; Phenomenex, USA), and the mobile phase was distilled water (A) containing 0.1% formic acid and acetonitrile (B) containing 0.1% formic acid. TurboSpray Ionization was used as an ion source for MS/MS, and a triple quadruple type was used as a mass spectrometer. The produced metabolites were quantified using a multiple reaction monitoring (MRM) quantitative mode, and data analysis was performed using Analyst software (version 1.6.1).
A short description of data set [6]: in vitro. The settings on record: rat, microsomes, pH 7.4.
Method: as §4
(§5) The amount of substrate remaining through the reaction was analyzed by LC-MS/MS using Agilent 1290 infinity series pump system (Agilent, USA) and Triple Quad 5500 LC-MS/MS system (Applied Biosystems, USA). The HPLC column was used with a Kinetex C18 column (2.1×100 mm, 1.7 μm particle size; Phenomenex, USA), and the mobile phase was distilled water (A) containing 0.1% formic acid and acetonitrile (B) containing 0.1% formic acid. TurboSpray Ionization was used as an ion source for MS/MS, and a triple quadruple type was used as a mass spectrometer. The produced metabolites were quantified using a multiple reaction monitoring (MRM) quantitative mode, and data analysis was performed using Analyst software (version 1.6.1).
Data set [7] in a line: in vitro. The following applies: mouse, microsomes, pH 7.4.
Method: as §4, §5
A short description of data set [8]: Plasma stability test, rat plasma. The settings on record: 1 μM, 37° C.
Method: as §2, §3
Data set [9] is described as follows: Plasma stability test, human plasma. The following applies: 1 μM, 37° C.
Method: as §2, §3
In a further data set the target is T2, CYP1A2 (Homo sapiens, UniProt P05177).
T2 sequence (P05177 1-516): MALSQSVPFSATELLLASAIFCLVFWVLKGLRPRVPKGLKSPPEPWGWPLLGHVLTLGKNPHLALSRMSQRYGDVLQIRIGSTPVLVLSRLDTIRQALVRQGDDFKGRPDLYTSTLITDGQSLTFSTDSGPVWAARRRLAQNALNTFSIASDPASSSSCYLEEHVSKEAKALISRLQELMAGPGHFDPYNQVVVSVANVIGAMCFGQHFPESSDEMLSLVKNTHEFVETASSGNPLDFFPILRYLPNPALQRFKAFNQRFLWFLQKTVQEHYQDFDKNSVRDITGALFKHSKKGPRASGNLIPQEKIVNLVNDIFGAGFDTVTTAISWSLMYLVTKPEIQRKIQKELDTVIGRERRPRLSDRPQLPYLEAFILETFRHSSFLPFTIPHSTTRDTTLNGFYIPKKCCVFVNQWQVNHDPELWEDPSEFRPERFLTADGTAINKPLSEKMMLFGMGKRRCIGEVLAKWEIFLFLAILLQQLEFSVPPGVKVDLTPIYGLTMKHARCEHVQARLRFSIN
Nature of the data set: CYP inhibition assay, CYP1A2. The settings on record: human liver microsomes 0.25 mg/ml, 10 μM, 15 minutes. The protocol: (§1) Metabolites of each CYP isoenzyme indicator drug produced through the reaction were analyzed by LC-MS/MS using the Shimadzu Nexera XR system and TSQ vantage (Thermo).
On the technique in general: Microsomes from liver hold many membrane-bound enzymes, among them those of drug oxidation.

In the next data set the target is CYP2C9 (Homo sapiens, UniProt P11712). Description: CYP inhibition assay, CYP2C9. The following applies: human, microsomes, 15 min, 10 μM, pH 7.4. The protocol: as §1
Another data set concerns the target CYP2C19 (Homo sapiens, UniProt P33261). Description: CYP inhibition assay, CYP2C19. The following applies: human, microsomes, 15 min, 10 μM, pH 7.4. Here is the method: as §1

Chain of CYP2C19 (P33261 whole entry): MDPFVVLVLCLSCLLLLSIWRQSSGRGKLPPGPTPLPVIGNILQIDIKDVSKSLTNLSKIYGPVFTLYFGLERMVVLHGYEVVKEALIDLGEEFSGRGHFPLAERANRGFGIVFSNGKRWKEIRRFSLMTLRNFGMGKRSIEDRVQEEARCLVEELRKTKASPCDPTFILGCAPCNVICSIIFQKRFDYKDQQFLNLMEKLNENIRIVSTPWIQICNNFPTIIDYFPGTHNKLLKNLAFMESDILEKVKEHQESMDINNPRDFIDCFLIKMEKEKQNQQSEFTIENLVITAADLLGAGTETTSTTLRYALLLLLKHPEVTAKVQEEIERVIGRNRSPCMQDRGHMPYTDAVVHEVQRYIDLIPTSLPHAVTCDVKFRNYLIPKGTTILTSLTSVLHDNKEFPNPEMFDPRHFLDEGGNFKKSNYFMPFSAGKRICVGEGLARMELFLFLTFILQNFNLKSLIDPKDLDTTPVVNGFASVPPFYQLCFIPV
Chain of CYP2C9 (P11712 whole entry): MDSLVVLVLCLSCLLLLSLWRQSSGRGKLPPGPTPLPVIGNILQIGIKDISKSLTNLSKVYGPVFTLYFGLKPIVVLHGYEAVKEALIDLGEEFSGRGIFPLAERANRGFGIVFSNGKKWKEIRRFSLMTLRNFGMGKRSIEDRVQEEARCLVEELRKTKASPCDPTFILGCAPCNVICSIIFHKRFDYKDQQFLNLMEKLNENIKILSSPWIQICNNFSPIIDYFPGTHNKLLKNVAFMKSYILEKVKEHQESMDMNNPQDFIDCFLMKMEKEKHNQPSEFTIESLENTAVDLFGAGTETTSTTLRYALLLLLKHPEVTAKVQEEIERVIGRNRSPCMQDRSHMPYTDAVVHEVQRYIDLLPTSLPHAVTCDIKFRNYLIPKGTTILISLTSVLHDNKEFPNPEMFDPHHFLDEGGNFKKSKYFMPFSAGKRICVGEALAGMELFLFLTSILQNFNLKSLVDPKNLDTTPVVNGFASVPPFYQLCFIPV
Method for physchem: A PRISMA HT solution was diluted in distilled water at a ratio of 1:40, and then used as a test buffer by adjusting the pH to 7.4.
10 mL of the prepared test material was diluted in 190 μL of isopropyl alcohol and prepared. In addition, 75 mL of the test solution and 70 mL of isopropyl alcohol were mixed to be used as a blank sample, and 5 mL of the test material diluted in isopropyl alcohol was added to the blank sample. After the diluted sample was mixed, the absorbance was measured and used as an initial test value. […] Thereafter, the precipitate was removed from the sample using a filter plate, 74 mL of the filtered sample was added with 75 mL of isopropyl alcohol, and then the absorbance was measured and used as the sample value.
The solubility value of the test material was analyzed using a msol Explore (Solubility explorer program) after measuring the absorbance of each sample through a microplate reader. The average and standard deviation of the experimental values (n=3) repeated three times were calculated using the Excel program.

In the case of `NCC(=O)N(CC(=O)N(CC(=O)N(CC(=O)N(CC(N)=O)Cc1ccccc1)Cc1ccc(O)cc1)Cc1ccc(O)cc1)C1CCC1` [DS-15, Ngly-Ncba-Ntyr-Ntyr-Nbn-NH2] (H-G[N(cBu)Gly][Gly(N-4-hydroxybenzyl)][Gly(N-4-hydroxybenzyl)][Nphe]-NH2), in the data set with AMPK phosphorylation [1], the “effect of increasing AMPK phosphorylation activity compared to APN5” value was “significant effect of increasing AMPK phosphorylation activity” and the “AMPK phosphorylation activity (fold change)” value is recorded as 1.2 fold change. For the same compound, the “AMPK phosphorylation activity after knockdown of the adiponectin receptor 1” value at adiponectin receptor 1 was “reduced the AMPK phosphorylation activity”.

For `NCC(=O)N(CC(=O)N(CC(=O)N(CC(=O)N(CC(N)=O)Cc1ccccc1)Cc1ccc(O)cc1)Cc1ccc(O)cc1)C1CCCC1` [DS-16, Ngly-Ncpe-Ntyr-Ntyr-Nbn-NH2] (H-G[Gly(N-cPent)][Gly(N-4-hydroxybenzyl)][Gly(N-4-hydroxybenzyl)][Nphe]-NH2), in the data set on AMPK phosphorylation [1], the “effect of increasing AMPK phosphorylation activity compared to APN5” value is “significant effect of increasing AMPK phosphorylation activity”. For the same compound, in the data set with AMPK phosphorylation [1], the “AMPK phosphorylation activity (fold change)” value was 1.4 fold change. Also, the “AMPK phosphorylation activity after knockdown of the adiponectin receptor 1” value at adiponectin receptor 1 was “reduced the AMPK phosphorylation activity”. For the same compound, the “concentration dependence of AMPK phosphorylation activity” value in the data set with AMPK phosphorylation [2] is “increased AMPK phosphorylation activity in a concentration-dependent manner”. This compound also displayed a solubility at 24 h in “physchem” of 333 µg/mL (≈ 495 µM). The amount remaining at 0.5 h, 1 μM in the data set “in vitro [3]” is over 100%; in “in vitro [4]”, over 100%; in the data set “in vitro [5]”, 87.1%; in the data set “in vitro [6]”, 79.8%; in the data set “in vitro [7]” it was 75.5%. Further, the fraction remaining at 2 h, 1 μM is over 100% in the data set “in vitro [3]” and 99.5% in the data set “in vitro [4]”.

Take `NCC(=O)N(CC(=O)N(CC(=O)N(CC(=O)N(CC(N)=O)Cc1ccccc1)Cc1ccc(O)cc1)Cc1ccccc1)C1CCCC1` [DS-25, Ngly-Ncpe-Nbn-Ntyr-Nbn-NH2] (H-G[Gly(N-cPent)][Nphe][Gly(N-4-hydroxybenzyl)][Nphe]-NH2): the “effect of increasing AMPK phosphorylation activity compared to APN5” value in the data set on AMPK phosphorylation [1] is on record as “significant effect of increasing AMPK phosphorylation activity”. Besides, the “AMPK phosphorylation activity (fold change)” value in the data set on AMPK phosphorylation [1] is on record as 2.1 fold change. At adiponectin receptor 1, the “AMPK phosphorylation activity after knockdown of the adiponectin receptor 1” value is reported as “reduced the AMPK phosphorylation activity”. Also, the “concentration dependence of AMPK phosphorylation activity” value with AMPK phosphorylation [2] is given as “increased AMPK phosphorylation activity in a concentration-dependent manner”. In the data set “physchem”, the solubility at 24 h turned out to be 325 µg/mL (≈ 495 µM). Further, the amount remaining at 0.5 h, 1 μM was 98.6% in the data set “in vitro [3]”; over 100% in the data set “in vitro [4]”; 93.6% in “in vitro [5]”; 80.9% in the data set “in vitro [6]”; 76% in the data set “in vitro [7]”. In addition, the results for the share remaining at 2 h, 1 μM in “in vitro [3]” and in the data set “in vitro [4]” were 98.4% and 95.9%, respectively.

Consider `NCC(=O)N(CC(=O)N(CC(=O)N(CC(=O)N(CC(N)=O)Cc1ccccc1)Cc1ccc(O)cc1)Cc1ccc(O)cc1)CC1CC1` [DS-31, Ngly-Ncpr-Ntyr-Ntyr-Nbn-NH2] (H-G[Gly(NCH2cPr)][Gly(N-4-hydroxybenzyl)][Gly(N-4-hydroxybenzyl)][Nphe]-NH2), for which the fraction remaining at 0.5 h, 1 μM is over 100% in “in vitro [3]”; over 100% in “in vitro [4]”; 93.7% in “in vitro [5]”; 83.7% in “in vitro [6]”; 72.2% in “in vitro [7]”. The share remaining at 2 h, 1 μM in the data set “in vitro [3]” and in the data set “in vitro [4]” was over 100% throughout.

`NCC(=O)N(CC(=O)N(CC(=O)N(CC(=O)N(CC(N)=O)Cc1ccc(C(F)(F)F)cc1)Cc1ccccc1)Cc1ccccc1)C1CCCC1` [DS-47, Ngly-Ncpe-Nbn-Ntfb-Nbn-NH2] (H-G[Gly(N-cPent)][Nphe][Nphe][X1]-NH2): in the data set on AMPK phosphorylation [1], the “effect of increasing AMPK phosphorylation activity compared to APN5” value is “significant effect of increasing AMPK phosphorylation activity”. In addition, the “AMPK phosphorylation activity (fold change)” value with AMPK phosphorylation [1] stood at 1.6 fold change. For the same compound, on adiponectin receptor 1, the “AMPK phosphorylation activity after knockdown of the adiponectin receptor 1” value was “reduced the AMPK phosphorylation activity”. The same compound came in with a solubility at 24 h in the data set “physchem” of 351 µg/mL (≈ 495 µM). Besides, the fraction remaining at 0.5 h, 1 μM is over 100% in “in vitro [3]”; over 100% in the data set “in vitro [4]”; 77.2% in the data set “in vitro [5]”; 73% in “in vitro [6]”; 95.3% in “in vitro [7]”. The amount remaining at 2 h, 1 μM in the data set “in vitro [3]” and in the data set “in vitro [4]” was over 100% each time.

Compound `NCC(=O)N(CCC(=O)O)CC(=O)N(CC(=O)N(CC(=O)N(CC(N)=O)Cc1ccccc1)Cc1ccc(C(F)(F)F)cc1)Cc1ccc(C(F)(F)F)cc1` [DS-71, Ngly-Nasp-Ntfp-Ntfp-Nbn-NH2] displayed a solubility at 24 h in “physchem” of 73.3 µg/mL (≈ 93.8 µM). Also, the amount remaining at 0.5 h, 1 μM in the data set “in vitro [3]” was over 100%; in “in vitro [4]”, over 100%; in the data set “in vitro [5]” it was over 100%; in the data set “in vitro [6]” it was over 100%; in the data set “in vitro [7]”, 84.4%. The fraction remaining at 2 h, 1 μM in “in vitro [3]” and in the data set “in vitro [4]” was over 100% each time.

Regarding `CCOC(=O)[C@H](CCc1ccccc1)N[C@@H](C)C(=O)N1CCC[C@H]1C(=O)O` [Enalapril], in [8], the “Plasma stability (% remaining) Rat, 30 m” value was 27.9 % remaining and the “Plasma stability (% remaining) Rat, 120 m” value is recorded as under 1 % remaining. The “Plasma stability (% remaining) Human, 30 m” value in [9] (30 m) was over 100 % remaining. Also, in data set [9] (120 m), the “Plasma stability (% remaining) Human, 120 m” value came out at 97.4 % remaining.

As to `CC(=O)N1CCN(c2ccc(OCC3COC(Cn4ccnc4)(c4ccc(Cl)cc4Cl)O3)cc2)CC1` (stereo not shown) [Ketoconazole], the “CYP inhibition (% of control activity) CYP1A2” value on CYP1A2 is 97.2 % of control activity. Also, on CYP2C9, the “CYP inhibition (% of control activity) CYP2C9” value is given as >100 % of control activity. For the same compound, the “CYP inhibition (% of control activity) CYP2C19” value on CYP2C19 was >100 % of control activity.

Take `CCN(CC)CCOC(=O)c1ccc(N)cc1` [Procaine]: in data set [8], the “Plasma stability (% remaining) Rat, 30 m” value was found to be 90.3 % remaining and the “Plasma stability (% remaining) Rat, 120 m” value stood at 57.4 % remaining. In addition, in [9] (5 min as printed in the cell), the “Plasma stability (% remaining) Human, 30 m column, cell marked (5 min)” value is reported as 2.8 (5 min) % remaining and the “Plasma stability (% remaining) Human, 120 m column, cell marked (5 min)” value is <1 (5 min) % remaining.

A word on the solubility: it is the dissolved amount per volume that the medium holds. Higher therefore signals a readily soluble substance. The term amount remaining denotes the share of the starting amount still present when the sample was taken.
